In publication PMC9223397 (International Journal of Molecular Sciences, 2022):
Where two headings read alike, the source gives them in different places.

What was measured:
[1] = Body weight in SOD1G93A mice; type: in vivo, SOD1^G93A male mice; conditions: 5 mg/kg i.p., 8 to 16 weeks of age
Procedure: (§1) The compounds were dissolved in 0.5% hydroxypropyl-methylcellulose (HPMC; H7509, Sigma-Aldrich) in distilled water and were administered by intraperitoneal (i.p.) route twice daily (bid) in a volume of 10 mL/kg. Administrations were given from 30 min after rhizotomy surgery until 42 days post-injury (dpi), the end of the study; in the SOD1^G93A study, treatments were given from 8 to 16 weeks of age (see Figure 6).

Sig-1R/BiP interaction = experiment: BiP/Sig-1R association assay in CHO cells; type: cell-based; conditions: for Effect on association between Sig-1R and BiP, compound alone: 30 µM; for Effect on Sig-1R/BiP interaction (concentration-response): CHO cells, 37 °C 30 min, co-IP/ELISA; for Functional profile for Sig-1R: based on BiP/Sig-1R association assay
Procedure: The interaction between Sig-1R and the chaperone BiP was used to identify the functional nature (agonistic or antagonistic) of compounds [38]. The assay was conducted by Amylgen according to their standard assay protocol (https://www.amylgen.fr/ (accessed on 15 May 2022)). Each assay condition consisted of six determinations. In brief, CHO cells were treated with compounds at 37 °C for 30 min and lysed. CHO cell lysates were immunoprecipitated with Sig-1R antibody, and coimmunoprecipitated BiP was detected by ELISA assay. In each experiment, untreated control cell lysates were used to assess the maximal level of Sig1R-BiP interaction and represented 100% of Sig1R-BiP association. Cells treated with compounds at the corresponding concentrations were equally processed, and the level of Sig1R-BiP association in those conditions was referred to as the control condition. In this experimental setting, Sig1R agonists were able to reduce the Sig1R-BiP interaction, while antagonists were not.

[2] = tested on: SMI-32-positive MNs in spinal cord organotypic cultures; experiment: Spinal cord organotypic cultures (SCOC) under chronic excitotoxicity (THA); type: cell-based, Sprague–Dawley rats; conditions: THA 100 µM, 28 DIV; tested at 0.03, 0.3, 3, 30 µM
Procedure: SCOCs from lumbar sections of 8-day-old Sprague–Dawley rats were prepared as previously described [39]. Briefly, the spinal cord was collected and cut into 350 μm thick transverse sections with a McIlwain Tissue Chopper. Four lumbar sections were transferred onto Millicell-CM nets (0.4 μm, PICM03050, Millipore) in medium (50% (v/v) minimal essential medium (MEM, M5775, Sigma), 2 mM glutamine, 25 mM HEPES, 25% (v/v) Hank’s Balanced Salt Solution (HBSS^−/−;14175, Gibco; UK) supplemented with 25.6 mg/mL glucose, and 25% (v/v) heat-inactivated horse serum (26050-088, Gibco; New Zealand), pH = 7.2). Cultures were maintained at 37 °C in a 5% CO2 humidified cabin and left to stabilize. After 7 days in vitro (DIV), DL-threo-β-hydroxyaspartic acid (THA; 100 μM: H2775, Sigma Aldrich, St. Louis, MI, USA) was added to induce chronic excitotoxicity [28]. […] In vitro experiments were performed in three independent cultures, with at least 12 different SCOCs for each experimental condition.
Slices were maintained for 28 DIV and then fixed with 4% PFA. […] MN survival was assessed by counting all SMI-32-positive neurons in each spinal cord using the Cell Counter plugin of ImageJ software.

[3] = Plasma levels, SOD1G93A model; type: in vivo, Transgenic SOD1^G93A male mouse; conditions: SOD1G93A transgenic, ip
Procedure: as §1
Plasma levels were determined in the two in vivo models evaluated to be able to associate the pharmacological activity with the levels present in plasma. In the rhizotomy model, the plasma levels were evaluated at Day 42 after surgery and at 15 min after compound administration (0.5 and 5 mg/kg i.p.). […] Plasma samples were assayed by ultraperformance liquid chromatography−triple quadrupole mass spectrometry (UPLC-MS/MS) after plasma protein precipitation. Results are expressed as mean ± standard deviation (n = 8).

[4] = tested on: microglia and astrocytes in ventral horn of SOD1^G93A mice; experiment: Glial reactivity in SOD1G93A mice (Iba1, GFAP); type: in vivo, SOD1^G93A male mice; conditions: 5 mg/kg i.p.; 16 weeks of age
Procedure: as §1
For glial cells immunofluorescence, other lumbar spinal cord sections were blocked with 10% normal donkey serum and incubated overnight with primary antibodies rabbit anti-Iba1 (1:500; 019–19741, Wako) and rat anti-GFAP (1:500; 13-0300, Invitrogen) to label microglia and astroglia, respectively. After several washes, sections were incubated with secondary antibodies Alexa Fluor 488-donkey anti-rat (1:500; A-21208, Invitrogen) or Alexa Fluor 594 donkey anti-rabbit (1:500; A21207, Invitrogen). Finally, sides were mounted with Fluoromount-G. To quantify glial cell reactivity, images of the ventral horn were acquired with an epifluorescence microscope (Nikon Eclipse Ni, Japan) using the same conditions for each analyzed marker. After defining a threshold for background correction, the integrated density of GFAP or Iba1 labeling was measured using ImageJ software.

[5] = tested on: spinal MNs after L4-L5 rhizotomy; experiment: MN survival after L4-L5 rhizotomy (cresyl violet MN counts); type: in vivo, female mice (B6SJL)
Procedure: Surgeries were performed on three-month-old mice under anesthesia with ketamine-xylazine (100–10 mg/kg i.p.) as previously described. Briefly, the L4-L5 spinal roots were exposed by a small laminectomy on the right side. Afterwards, roots were cut at the exit from the intervertebral foramina, and the root stumps were separated. Mice were cared for until recovery in a warm environment. Analgesia was provided with buprenorphine (0.1 mg/kg) for the next 48 h post-surgery.
as §1
At the end of follow-up (42 dpi for rhizotomy and 16 weeks of age for ALS mice; Figure 6), the animals were deeply anesthetized and transcardially perfused with 4% PFA in PBS. The lumbar spinal cord and the TA muscle were harvested and cryopreserved in 30% sucrose solution in PB. The spinal cords were serially cut in 20 µm thick transverse sections with a cryostat (Leica, Mannheim, Germany). For MN counting, L4-L5 spinal cord sections separated 100 µm were stained for 3 h with an acidified solution of 3.1 mM cresyl violet. MNs were identified by their localization in the lateral ventral horn of the spinal cord and were counted following strict size and morphological criteria: only MNs with a diameter larger than 20 µm, polygonal shape, and prominent nucleoli were counted.

SOD1^G93A mice = experiment: Rotarod test in SOD1G93A mice; type: in vivo, SOD1^G93A male mice; conditions: 5 mg/kg i.p.; at 15 weeks of age
Procedure: as §1
A rotarod test was performed to evaluate motor coordination and strength. The time that each animal remained on the rotating rod at a speed of 14 rpm was measured for five trials per mouse, and the longest time until falling was recorded; 180 s was chosen as the cut-off time. The test was performed weekly from 8 to 16 weeks of age in SOD1^G93A and WT mice, and disease onset was determined as the first week when each mouse was unable to keep walking for 180 s on the rod.

[6] = 0.5 mg/kg bid i.p., 42 dpi, not significant
[7] = 5 mg/kg/bid i.p. 6 weeks, 42 days after injury, untreated injured 6.8 ± 0.3

| Structure (SMILES) | Body weight vs vehicle group [1] | Effect on association between Sig-1R and BiP, compound alone (Sig-1R/BiP interaction) | Effect on Sig-1R/BiP interaction (concentration-response) (Sig-1R/BiP interaction) | Functional profile for Sig-1R (Sig-1R/BiP interaction) | Number of SMI-32-positive MNs vs THA condition [2] | concentration at 15 min ([3]; plasma, SOD1G93A male mouse, 5 mg/kg i.p., after 8 weeks of administration, read-out: Plasma Concentration 15 min Post-Administration, Mean) | Astrocyte activation (GFAP) [4] | Microglial activation (Iba1) [4] | Number of spinal MNs ± SEM, ipsilateral ventral horn [5, 6] | Number of spinal MNs ± SEM, ipsilateral ventral horn [5, 7] | Rotarod performance vs vehicle (SOD1^G93A mice) | Reversion of the effect of PRE-084 on Sig-1R/BiP association (Sig-1R/BiP interaction; compound 30 µM, PRE-084 10 µM) | concentration at 15 min ([3]; male, mouse, in vivo, 5 mg/kg) |
| --- | --- | --- | --- | --- | --- | --- | --- | --- | --- | --- | --- | --- | --- |
| C[C@@H]1OC2(CCN(Cc3ccc(F)cc3)CC2)CN(C)C1=O [EST79232] | did not cause differences in body weight | able to reduce the association between Sig-1R and BiP | concentration-dependent dissociation of Sig-1R from BiP | agonist | significantly more SMI-32-positive neurons at three concentrations tested | 425 ng/mL | significant decrease in astrocyte activation | did not reduce microglial activation | 7.6 ± 0.9 | 8.6 ± 0.6 | significant improvement | – | – |
| CCN1CC2(CCN(Cc3ccc(C#N)c(F)c3)CC2)O[C@@H](C)C1=O [EST79376] | – | had no effect on its own | did not produce any change in the interaction between the two proteins | antagonist | significantly preserved MNs | – | significant decrease in astrocyte activation | did not reduce microglial activation | 7.4 ± 0.7 | 8.7 ± 0.5 | – | able to revert the effect of PRE-084 | 692 ng/mL |
